Our source for the Cmax and EC50 values is US10654834B2 (Venenum Biodesign, LLC, priority 2016, dated 2020).

The nature of data set [1]: Pharmacokinetic profile in mice after oral gavage. The class given is in vivo, mouse. Particulars: mouse; fasted male Hilltop mice, 10 mg/kg oral gavage, plasma; read-out: Cmax. On the procedure:
Pharmacokinetic Profile in Mice
In this series of studies, the pharmacokinetic profile characteristics of compounds of the present invention were evaluated. The plasma concentration levels of the compounds were monitored in the blood stream (i.e., plasma) after oral gavage using Cmax, and area under the curve (AUC).
8 week old male Hilltop mice were fasted overnight. Animals were randomized into groups (n=9) by body weight. Mice were dosed with 10 mg/kg compound (in 20% PEG400/80% 0.5% carboxymethylcellulose (medium viscosity)+0.25% Tween-80) at a volume of […] through oral gavage. Blood was collected via orbital bleeding at 0, 0.25, 0.5, 1, 2, and 4 h post-dose, with no one mouse having more than 3 blood draws. Blood was collected in EDTA coated tubes. Samples were stored at −20° C. until analysis.
Quantitation of compound levels in plasma was accomplished by LC-MS/MS analysis. Standard curve and quality control samples were prepared in male CD-1 mouse plasma containing EDTA K^2+ as an anticoagulant at final concentrations ranging from 500 to 0.1 ng/mL. The plasma samples, calibration curve standards, and quality control samples were prepared in an identical method in a 96-well deep plate (1 mL) with a quenching solution (1:1 mixed acetonitrile:methanol containing the internal standard Reserpine @ 400 ng/mL). Low volume samples were supplemented with CD-1 mouse plasma. The plate was mixed on multi-tube vortexer for 1 min and centrifuged at 4000 rpm for 30 min at 4° C. (Sorvall® Super T21) before LC-MS/MS analysis. LC conditions were developed and optimized based on each compound as needed. The outlet of the column was coupled to AB Sciex 4000 QTrap Mass Spectrometer (AB Sciex, Brugg Switzerland). Detection was carried out using multiple reaction monitoring mode with positive-ion detection focusing. The pharmacokinetic parameters were derived from the plasma-time data and calculated using the standard non-compartmental method with WinNonlin (Pharsight, Mountain View, Calif.) or PK Solver (Comp. Meth. Prog. Biomed. (2010), 99, 306-314).
Values reported are the mean plasma concentration of three mice. […]

A further data set concerns the target T1, mouse TGR5 receptor (Mus musculus, UniProt Q80SS6).
T1 construct: host or cells: HEK293-EBNA (293 c18, ATCC CRL10852)
T1 sequence (Q80SS6 1-329): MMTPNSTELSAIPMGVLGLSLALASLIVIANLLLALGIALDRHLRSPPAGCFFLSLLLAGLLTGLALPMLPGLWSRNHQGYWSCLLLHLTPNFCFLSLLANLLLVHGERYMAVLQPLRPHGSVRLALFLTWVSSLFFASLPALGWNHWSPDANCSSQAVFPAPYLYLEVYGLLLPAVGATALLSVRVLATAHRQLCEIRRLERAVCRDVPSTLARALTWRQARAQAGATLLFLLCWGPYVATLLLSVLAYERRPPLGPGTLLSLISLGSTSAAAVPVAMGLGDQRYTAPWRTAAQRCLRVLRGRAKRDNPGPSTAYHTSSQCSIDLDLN
Kind of data set: Mouse TGR5 HTRF cAMP production assay (HEK293-EBNA cells, Cisbio cAMP HiRange kit). The class given is cell-based. Particulars: HEK293-EBNA cells overexpressing mouse TGR5, HTRF cAMP assay. Summed up: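 HEK293-EBNA cells stably expressing mouse TGR5 (episomal vector) were suspended in serum-free DMEM with 500 μM IBMX and exposed to 12-point half-log compound dilutions for 1 h at room temperature. cAMP was detected by HTRF (d2-cAMP/anti-cAMP cryptate, 1 h, room temperature), giving EC50 from duplicates.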
(In general: TR-FRET usually uses a lanthanide donor and a delayed reading to cut background.)

The next data set has as its target T2, human TGR5 receptor (Homo sapiens, UniProt Q8TDU6).
T2 construct: host or cells: CHO-K1 (hTGR5-CHO)
T2 sequence (Q8TDU6 1-330): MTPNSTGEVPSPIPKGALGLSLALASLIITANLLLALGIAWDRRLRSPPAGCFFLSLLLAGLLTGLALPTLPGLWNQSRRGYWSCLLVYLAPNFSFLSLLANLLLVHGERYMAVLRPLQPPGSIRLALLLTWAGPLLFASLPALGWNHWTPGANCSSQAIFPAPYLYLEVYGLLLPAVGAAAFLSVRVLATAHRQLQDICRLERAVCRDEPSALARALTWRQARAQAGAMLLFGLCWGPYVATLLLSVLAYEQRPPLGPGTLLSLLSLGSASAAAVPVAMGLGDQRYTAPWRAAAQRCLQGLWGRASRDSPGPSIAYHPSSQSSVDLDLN
The data set is described as follows: Human TGR5 cAMP production assay (hTGR5-CHO cells, DiscoveRx cAMP XS+ kit). In kind it is cell-based. The following applies: luminescent cAMP assay, read-out: Human TGR5 Lum. cAMP Activity (EC50). Summed up: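 CHO-K1 cells stably expressing hTGR5, in PBS with IBMX and cAMP antibody, treated with half-log compound dilutions for 1 h at room temperature. cAMP measured by enzyme-fragment complementation luminescence after overnight detection; EC50 values reported.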
On the technique in general: cAMP levels reflect the balance of adenylyl cyclase and phosphodiesterase activity.

As usually defined, the Cmax is the highest concentration seen after dosing. By EC50 is commonly meant the midpoint of the concentration-response curve. Consider `N#Cc1ccc(CCNC(=O)[C@@H]2CCCN2c2cc(N3CCC(CCCC(=O)N[C@H](CCCNC(=N)N)C(=O)O)CC3)nc(C(F)(F)F)n2)cc1` [Compound 73, (R)-2-(4-(1-(6-((S)-2-((4-cyanophenethyl)carbamoyl)pyrrolidin-1-yl)-2-(trifluoromethyl)pyrimidin-4-yl)piperidin-4-yl)butanamido)-5-guanidinopentanoic acid], for which the Cmax in data set [1] is 2.8 ng/mL. Besides, the EC50 at mouse TGR5 receptor and at human TGR5 receptor was less than 100 nM each time.
Take `O=C(CCCC1CCN(c2cc(N3CCC[C@H]3C(=O)NCCc3ccc(Cl)c(Cl)c3)nc(C(F)(F)F)n2)CC1)NCS(=O)(=O)O` [Compound 136, (S)-(4-(1-(6-(2-((3,4-dichlorophenethyl)carbamoyl)pyrrolidin-1-yl)-2-(trifluoromethyl)pyrimidin-4-yl)piperidin-4-yl)butanamido)methanesulfonic acid]: the Cmax in data set [1] came to 59 ng/mL. Besides, the EC50 on mouse TGR5 receptor and at human TGR5 receptor was less than 100 nM in each case.
Regarding `N=C(N)NCCS(=O)(=O)N1CCN(c2cc(N3CCC[C@@H](C(=O)NCCc4ccc(C(F)(F)F)cc4)C3)nc(C(F)(F)F)n2)CC1` [Compound 349, (R)-1-(6-(4-((2-guanidinoethyl)sulfonyl)piperazin-1-yl)-2-(trifluoromethyl)-pyrimidin-4-yl)-N-(4-(trifluoromethyl)phenethyl)piperidine-3-carboxamide], the Cmax in data set [1] was 1.7 ng/mL. Also, the EC50 on mouse TGR5 receptor and on human TGR5 receptor was less than 100 nM throughout.
Turning to `N=C(N)NCCC[C@H](NC(=O)CCC1CCN(c2cc(N3CC[C@H]3C(=O)NCCc3ccc(C(F)(F)F)cc3)nc(C(F)(F)F)n2)CC1)C(=O)O` [Compound 258, (S)-5-guanidino-2-(3-(1-(2-(trifluoromethyl)-6-((S)-2-((4-(trifluoromethyl)phenethyl)carbamoyl)azetidin-1-yl)pyrimidin-4-yl)piperidin-4-yl)propanamido)pentanoic acid], the Cmax in data set [1] amounted to 42 ng/mL. Besides, the EC50 at mouse TGR5 receptor and on human TGR5 receptor was less than 100 nM throughout.
On to `O=C(CCCC1CCN(c2cc(N3CC[C@H]3C(=O)NCCc3ccc(C(F)(F)F)cc3)nc(C(F)(F)F)n2)CC1)NCS(=O)(=O)O` [Compound 255, (S)-(4-(1-(2-(trifluoromethyl)-6-(2-((4-(trifluoromethyl)phenethyl)carbamoyl)azetidin-1-yl)pyrimidin-4-yl)piperidin-4-yl)butanamido)methanesulfonic acid], for which the Cmax in data set [1] worked out at 64 ng/mL. The EC50 at mouse TGR5 receptor and on human TGR5 receptor was less than 100 nM each time.
Take `O=C(CCCC1CCN(c2cc(N3CCC[C@H]3C(=O)NCCc3ccc(Cl)cc3)nc(C(F)(F)F)n2)CC1)NCS(=O)(=O)O` [Compound 137, (S)-(4-(1-(6-(2-((4-chlorophenethyl)-carbamoyl)pyrrolidin-1-yl)-2-(trifluoromethyl)pyrimidin-4-yl)-piperidin-4-yl)butanamido)-methanesulfonic acid]: the Cmax in data set [1] came to 22 ng/mL. In addition, the EC50 on mouse TGR5 receptor and on human TGR5 receptor was less than 100 nM throughout.
On to `O=C(CCCC1CCN(c2cc(N3CCC[C@H]3C(=O)NCCc3cccc(Cl)c3Cl)nc(C(F)(F)F)n2)CC1)NCS(=O)(=O)O` [Compound 138, (S)-(4-(1-(6-(2-((2,3-dichlorophenethyl)carbamoyl)pyrrolidin-1-yl)-2-(trifluoromethyl)pyrimidin-4-yl)piperidin-4-yl)butanamido)-methanesulfonic acid], for which the Cmax in data set [1] was 69 ng/mL. Further, the EC50 at mouse TGR5 receptor and at human TGR5 receptor was less than 100 nM each time.
In the case of `N#Cc1ccc(CCNC(=O)[C@@H]2CCCN2c2cc(N3CCC(CCNC(=O)N[C@@H](CCCNC(=N)N)C(=O)O)CC3)nc(C(F)(F)F)n2)cc1` [Compound 83, (S)-2-(3-(2-(1-(6-((S)-2-((4-cyanophenethyl)carbamoyl)pyrrolidin-1-yl)-2-(trifluoromethyl)pyrimidin-4-yl)piperidin-4-yl)ethyl)ureido)-5-guanidinopentanoic acid], the Cmax in data set [1] was determined as 2.5 ng/mL. Further, the EC50 at mouse TGR5 receptor and on human TGR5 receptor was less than 100 nM throughout.
On to `O=C(CCCC1CCN(c2cc(N3CCC[C@H]3C(=O)NCCc3ccc(C(F)(F)F)cc3)nc(C(F)(F)F)n2)CC1)NCCNS(=O)(=O)c1ccc(C(=O)O)cc1` [Compound 94, (S)-4-(N-(2-(4-(1-(2-(trifluoromethyl)-6-(2-((4-(trifluoromethyl)phenethyl)-carbamoyl)-pyrrolidin-1-yl)pyrimidin-4-yl)piperidin-4-yl)butanamido)ethyl)-sulfamoyl)benzoic acid], for which, in data set [1], the Cmax was found to be 26 ng/mL. Further, the EC50 on mouse TGR5 receptor and at human TGR5 receptor was less than 100 nM in each case.
Consider `N=C(N)NCCNC(=O)CCCC1CCN(c2cc(N3CCC[C@H]3C(=O)NCCc3ccc(C(F)(F)F)cc3)nc(C(F)(F)F)n2)CC1` [Compound 131, (S)-1-(6-(4-(4-((2-guanidinoethyl)-amino)-4-oxobutyl)piperidin-1-yl)-2-(trifluoromethyl)pyrimidin-4-yl)-N-(4-(trifluoromethyl)phenethyl)pyrrolidine-2-carboxamide], for which the Cmax in data set [1] turned out to be 12 ng/mL. Also, the EC50 at mouse TGR5 receptor and at human TGR5 receptor was less than 100 nM in each case.
In the case of `C[N+](C)(C)CCC[C@H](NC(=O)CCCC1CCN(c2cc(N3CCC[C@H]3C(=O)NCCc3ccc(C#N)cc3)nc(C(F)(F)F)n2)CC1)C(=O)O` [Compound 105, (S)-4-carboxy-4-(4-(1-(6-((S)-2-((4-cyanophenethyl)carbamoyl)pyrrolidin-1-yl)-2-(trifluoromethyl)pyrimidin-4-yl)piperidin-4-yl)butanamido)-N,N,N-trimethylbutan-1-aminium], the Cmax in data set [1] amounted to 51 ng/mL. Moreover, the 50% effective concentration (EC50) on mouse TGR5 receptor and at human TGR5 receptor was less than 100 nM in each case.
Turning to `N#Cc1ccc(CCNC(=O)[C@@H]2CCCN2c2cc(N3CCC(CCNC(=O)NCS(=O)(=O)O)CC3)nc(C(F)(F)F)n2)cc1` [Compound 79, (S)-(3-(2-(1-(6-(2-((4-cyanophenethyl)carbamoyl)pyrrolidin-1-yl)-2-(trifluoromethyl)pyrimidin-4-yl)piperidin-4-yl)ethyl)ureido)methanesulfonic acid], in data set [1], the Cmax is 15 ng/mL. In addition, the EC50 at mouse TGR5 receptor and at human TGR5 receptor was less than 100 nM throughout.
Regarding `O=C(NCCCC1CCN(c2cc(N3CCC[C@H]3C(=O)NCCc3ccc(C(F)(F)F)cc3)nc(C(F)(F)F)n2)CC1)NCCS(=O)(=O)O` [Compound 87, (S)-2-(3-(3-(1-(2-(trifluoromethyl)-6-(2-((4-(trifluoromethyl)phenethyl)-carbamoyl)-pyrrolidin-1-yl)pyrimidin-4-yl)piperidin-4-yl)propyl)ureido)-ethanesulfonic acid], the peak concentration (Cmax) in data set [1] stood at 35 ng/mL. Also, the EC50 on mouse TGR5 receptor and at human TGR5 receptor was less than 100 nM throughout.
In the case of `N#Cc1ccc(CCNC(=O)[C@@H]2CCCN2c2cc(N3CCC(CCNS(=O)(=O)CCN)CC3)nc(C(F)(F)F)n2)cc1` [Compound 116, (S)-1-(6-(4-(2-(2-aminoethylsulfonamido)ethyl)piperidin-1-yl)-2-(trifluoromethyl)-pyrimidin-4-yl)-N-(4-cyanophenethyl)pyrrolidine-2-carboxamide], the Cmax in data set [1] was 15 ng/mL. Further, the EC50 at mouse TGR5 receptor and at human TGR5 receptor was less than 100 nM each time.
